Test results reported in patent US20020110801A1, “A Method for screening compounds for the modulation of cognitive function” (priority 1998, published 2002).
Marks after values point to notes of the source that are not given here.

Columns and labels:
[1] = system: dendritic spine motility in hippocampal neurons expressing GFP-actin; type: cell-based, rat; conditions: for effect of NMDA receptor blockade on spine motility: antagonist alone; for influence on the inhibition of motility by AMPA: antagonist present with AMPA
Protocol: In this example it is shown that dendritic spine motility is inhibited by AMPA. To assess the influence of glutamate receptors on dendritic spine motility video recordings are made during which agonists and antagonists of ionotropic glutamate receptors are transiently applied to hippocampal neurons expressing GFP-actin. For example, such a recording is made from part of the dendrite of a GFP-actin expressing cell in a culture that is exposed to 200 nM AMPA. In initial titration experiments, AMPA is effective at concentrations as low as 50 nM. […] The striking extent of this motility blockade may be illustrated by video data. […] In order to exclude the effect being a consequence of indirect NMDA receptor activation, the experiment may be repeated in presence of the selective NMDA receptor antagonists APV and MK801. Data may be recorded for several spines on a single dendrite segment at high magnification so that the effect of AMPA on individual spines is visible. […] The results for APV are equivalent. Such frames are taken from a longer video recording encompassing a much larger area of this dendrite and several different drug combinations. […]
All reagents for cell culturing are obtained either from Life Technologies, Basel, Switzerland, or from Sigma Chemicals/Fluka Biochemicals, Buchs, Switzerland. Cultures of primary rat hippocampal neurons are established exactly according to Goslin and Banker (Rat hippocampal neurons in low-density culture, in Culturing Nerve Cells (Bradford Book, MIT Press, Cambridge, Mass., 1991) G. Banker and K. Goslin, eds.). Briefly, dissected hippocampi of E19 rat embryos are digested with 0.25% trypsin for 15 min at 37° C. and triturated to yield a single cell suspension using a narrow-bore pasteur pipet. Neurons are plated onto polylysine treated glass coverslips in Eagle's minimal essential medium supplemented with 10% horse serum. After a 4 hr incubation the coverslips are turned over onto confluent layers of primary astroglial feeder layers in chemically defined Eagle's minimal essential medium with N2 supplement. Over a time period of 3-4 weeks, neurons develop large networks of processes and eventually matured to carry synapses on dendritic spines.
For live imaging, coverslips are mounted in saline in closed observation chambers (Type 1, Life Imaging Services, Olten, Switzerland) and placed at 37° C. on a DM-IRBE inverted fluorescence microscope (Leica, Basel, Switzerland) equipped with high numerical aperture oil lenses and a GFP-optimized filter set (Chroma Technologies, Brattleboro, Vt., USA). […]
Drugs are either applied by gravity feed perfusion or by removing the chamber lid and adding the test substance. […] The pH is adjusted to 7.2. [NMDA and AMPA receptor activity is influenced by the extracellular concentration of protons (Kashiwagi et al., 1997; Saybasili et al., 1998; Mc Donald et al., 1998)]

[2] = system: tadpoles; conditions: based on EC50 in tadpoles; read-out: Effective conc. for anesthesia; cited from earlier work
[3] = system: actin-based motility in dendritic spines; assay: video time-lapse recording of dendritic spine motility (shape factor) in GFP-actin transfected hippocampal neurons, volatile anaesthetics; type: cell-based, rat; conditions: for Effective conc. for spine motility: calculated from concentration of saturated solution at 25° C. used as stock solution; for effect on spine shape change / spine motility in presence of the anaesthetic: clinically relevant concentrations in saline; for spine motility after the anaesthetic is removed: washout
Protocol: To examine the influence of volatile anaesthetics on spine motility their effects on live, cultured hippocampal neurons that have been transfected with green fluorescent protein-tagged actin (GFP-actin) to render their dendritic spines visible are studied.
The following example further illustrates the employment of an assay according to the invention. First, the shape of a dendritic spine on a rat hippocampal neuron in culture as visualized by GFP-actin enriched in the spine head is recorded about every 5 sec over a period of about 6 min prior to perfusion with isoflurane. Then the cells are slowly perfused with isoflurane at clinically relevant concentrations in saline. This step is followed by an additional time-lapse recording over about 6 min. Then a morphometric analysis of spine shape is done using the integrated morphometry analysis interface in Metamorph 3.0. In particular, the shape factor calculated from the perimeter and the area of the spine illustrates changes in spine shape.
All reagents for cell culturing are obtained either from Life Technologies, Basel, Switzerland, or from Sigma Chemicals/Fluka Biochemicals, Buchs, Switzerland. […] Neurons are plated onto polylysine treated glass coverslips in Eagle's minimal essential medium supplemented with 10% horse serum. After a 4 hr incubation the coverslips are turned over onto confluent layers of primary astroglial feeder layers in chemically defined Eagle's minimal essential medium with N2 supplement. Over a time period of 3-4 weeks, neurons develop large networks of processes and eventually matured to carry synapses on dendritic spines.
For live imaging, coverslips are mounted in saline in closed observation chambers (Type 1, Life Imaging Services, Olten, Switzerland) and placed at 37° C. on a DM-IRBE inverted fluorescence microscope (Leica, Basel, Switzerland) equipped with high numerical aperture oil lenses and a GFP-optimized filter set (Chroma Technologies, Brattleboro, Vt., USA).
Images are captured using a cooled CCD camera (Princeton Instruments, Trenton, N.J., USA) and MetaMorph Imaging Software version 3.0 (Universal Imaging Corporation, West Chester, Pa., USA). Anaesthetics are diluted from saturated solutions in saline into prewarmed saline immediately prior to slow perfusion into the closed observation chambers at a rate of approx. 0.5 ml/min for a total exchange of 5 ml volume.
For analysis of spine shape over time the integrated morphometric function of MetaMorph 3.0, in particular the shape factor of thresholded objects calculated from their perimeter and their area, is used to log the data for individual images directly to Microsoft Excel 97.

[4] = in phosphate-buffered saline; McKenzie et al. 1995; cited from earlier work
[5] = system: distribution of GFP-actin fluorescence in hippocampal neurons; assay: GFP-actin fluorescence intensity in successive video frames; type: cell-based, rat
Excerpt: In this example it is shown that AMPA treatment appears to involve a redistribution of spine actin. A further consistent consequence of treating hippocampal neurons with AMPA is a visible change in the distribution of GFP-actin fluorescence involving an apparent shift toward a concentration in the centre of the spine head. GFP-actin fluorescence intensity may be measured in successive frames of video recordings in which AMPA is transiently present. Measurements are made for a whole dendritic segment and within boxes of the same area placed in the center of spine heads or on the dendritic shaft, respectively. […] This phenomenon could reflect some general aspect of gfp fluorescence in response to an altered ion concentration or pH of the local cytoplasm. Fluorescence excitation of gfp in solution decreases at low pH. Therefore the observed decrease in brightness might be attributed to a lowered pH, mediated by glutamate receptor activation. Application of glutamate or Ca2+ ionophores to rat primary cultured hippocampal neurons is shown to induce a persistent acidosis. To account for this effect, data are normalized for single spines to the overall brightness of the dendrite. The average brightness from the boxes during the recordings for three randomly selected spines may then be evaluated. […] For above mentioned reasons, it is not entirely clear, if the apparent reduction in spine diameter is due to loss of actin fluorescence because of pH shifts or actin concentration in the center of spine heads, but comparison of phase and GFP-actin pictures argue in favour of changes in spine head size. The same caution has to apply to changes in the diameter of the spine neck, which have been postulated to influence synaptic weight by altering the electrical resistance. Those structures are extremely small and for a detailed analysis electronmicroscopic analysis would be favourable.

[6] = system: rat embryo fibroblasts; assay: TPA-induced membrane ruffling, rhodamine-phalloidin staining of actin; type: cell-based; conditions: pretreatment of cells; 100 nM TPA 15 min
Excerpt: The results of these experiments on neurons pose the question of whether volatile anaesthetics act directly on actin in dendritic spines or indirectly through neurotransmitter receptors, which are also influenced by these agents at clinically relevant concentrations, or some other component of central synapses. To choose between these possibilities the influence of volatile anaesthetics on actin-based motility is examined in fibroblastic cells, where neurotransmitter receptors and other elements of the synaptic machinery are absent. […] Resting layers of rat embryo fibroblasts in saline are treated for 15 min with 100 nM TPA which induces membrane ruffling. Cells are fixed and stained with rhodamine-labelled phalloidin to visualize actin enrichment in ruffles at the edges of the cells. […]
For analysis of the actin cytoskeleton in REF52, cells plated on glass coverlips are serum-starved for several hours prior to the experiment. […] Cells are then fixed with 4% paraformaldehyde (Fluka Biochemicals, Buchs, Switzerland) in phosphate-buffered saline with 0.02% Triton X-100 (Fluka Biochemicals, Buchs, Switzerland) and […] rhodamine-labelled phalloidin F(Sigma Chemicals, Buchs, Switzerland) for 10 min at room temperature, rinsed in phosphate-buffered saline and mounted in Vectashield (Vector Laboratories, Burlingame, Calif., USA) for inspection on the fluorescence microscope.

[7] = system: pure actin; assay: pyrene-actin fluorescence assay of actin filament assembly in vitro; type: biochemical; conditions: during assembly or added to pre-formed filaments
Protocol: Since actin-based motility in dendritic spines depends on the actin polymerization cycle the possible influence of isoflurane on actin filament assembly is tested in vitro using a well-established pyrene-actin fluorescence assay.

[8] = system: rats; conditions: based on minimal alveolar concentration (MAC) in rats; cited from earlier work

Which “effect of NMDA receptor blockade on spine motility” value [1] does the source give for `N[C@@H](CCCP(=O)(O)O)C(=O)O` [APV] here?
The value was “equivalent”.

What about the “influence on the inhibition of motility by AMPA” value [1] of the same molecule?
Its value is “equivalent”.

Which results are given for `CCOCC` [Diethylether, diethylether]?
EC50 [2]: 25 mM; Effective conc. for spine motility [3]: 20.4 mM; concentration of saturated solution [4]: 816000 µM

With `C=C(C)[C@H]1CN[C@H](C(=O)O)[C@H]1CC(=O)O` [Kainate] as the molecule, how does the “mimics the effect of AMPA on spine motility” value [1] read?
The value was “mimicked”.

With `Cc1onc(O)c1CC(N)C(=O)O` (stereo not drawn) [AMPA, α-amino-3-hydroxy-5-methylisoxazole-4-propionic acid] as the molecule, how does the “GFP-actin fluorescence intensity over the whole dendrite” value ([5]; after application of AMPA) read?
Its value is “decrease in intensity”.

And the “average brightness of the dendritic shaft” value ([5]; normalized to overall brightness of the dendrite)?
The value was “reduced”.

And the “GFP-actin fluorescence intensity in the centre of spine heads” value ([5]; three randomly selected spines, normalized to overall brightness of the dendrite)?
The value was “marked increase”.

What about the “dendritic varicosities associated with subsequent cell death” value ([1]; 50 nM to 200 nM) of the same molecule?
Its value is “do not produce dendritic varicosities”.

And the “reversibility of effect on spine motility” value ([1]; 50 nM to 200 nM)?
Its value is “reversible”.

And the spine movement ([1]; 200 nM AMPA present)?
Its spine movement is “spine movement effectively ceases”.

And the “lowest effective concentration on spine motility” value ([1]; initial titration experiments)?
The value was 50 nM.

Which TPA-induced actin ruffles [6] does the source give for `FC(F)OC(Cl)C(F)(F)F` (stereo not shown) [Isoflurane] here?
Its TPA-induced actin ruffles is “prevents TPA-induced actin ruffles”.

And the “effect on polymerization state of pure actin” value [7]?
Its value is “no detectable effect”.

What about the “Effective conc. for anesthesia” value [8] of the same molecule?
The value was 0.31^a mM.

And the “Effective conc. for spine motility” value [3]?
Its value is 0.30 mM.

And the “effect on spine shape change / spine motility in presence of the anaesthetic” value [3]?
The value was “it remains constant”.

What about the spine motility ([3]; dilution of 1:50 of saturated solution) of the same molecule?
Its spine motility is “fully inhibited”.

What about the spine motility ([3]; dilution of 1:60 of saturated solution) of the same molecule?
The spine motility was “fully motile”.

And the spine motility ([3]; dilution of 1:100 of saturated solution)?
The spine motility was “fully motile”.

What about the “spine motility after the anaesthetic is removed” value [3] of the same molecule?
Its value is “recovery of motility”.

What about the “concentration of saturated solution” value [4] of the same molecule?
Its value is 15300 µM.

Which results are given for `FC(F)(F)C(Cl)Br` (stereo not shown) [Halothane]?
Effective conc. for anesthesia [8]: 0.27^a mM; Effective conc. for spine motility [3]: 0.23 mM

For `Cc1onc(OCC(=O)O)c1CC(N)C(=O)O` (stereo not shown) [AMOA, 2-amino-3-[3-(carboxymethoxy)-5-methyl-isoxazol-4-yl]propionic acid], which “block of the effect of AMPA on spine motility” value ([1]; AMPA receptor antagonist applied with AMPA) is on record?
The value was “entirely blocked”.

Which results are given for `ClC(Cl)Cl` [Chloroform]?
EC50 [2]: 1.3 mM; Effective conc. for spine motility [3]: 1.33 mM; effect on spine shape change / spine motility in presence of the anaesthetic [3]: variation in spine shape is minimal; spine motility after the anaesthetic is removed [3]: rapid changes in spine shape are resumed; concentration of saturated solution [4]: 66000 µM

Which results are given for `C[C@]12N[C@H](Cc3ccccc31)c1ccccc12` [MK801]?
effect of NMDA receptor blockade on spine motility [1]: does not inhibit spine motility; influence on the inhibition of motility by AMPA [1]: does not influence

With `FC(F)OC(F)(F)C(F)Cl` (stereo not shown) [Enflurane] as the molecule, how does the “Effective conc. for anesthesia” value [8] read?
Its value is 0.64^a mM.

What about the “Effective conc. for spine motility” value [3] of the same molecule?
The value was 0.30 mM.

What about the “concentration of saturated solution” value [4] of the same molecule?
The value was 11900 µM.

Which “concentration of saturated solution” value [4] does the source give for `COC(F)(F)C(Cl)Cl` [methoxyflurane, Methoxyflurane] here?
Its value is 9100 µM.
